Source: US7291710B2, “Detection of spectrin and spectrin proteolytic cleavage products in assessing nerve cell damage” (priority 2002, dated 2007)
Where a SMILES comes first, the peptide text is derived from it.

Assays:
[1] = test system: calpain and caspase-3 activation in septo-hippocampal cultures; test: Treatment of septo-hippocampal cultures with calpain, caspase and protein synthesis inhibitors; type: cell-based, rat; details: for antagonism of calpain and caspase-3 activation accompanying staurosporine-induced apoptosis: 37.5 μM CalpInh-II, 30 μM Z-D-DCB, pretreatment 1 hour
Method: (§1) Septo-hippocampal cultures. Eighteen day old rat fetuses were removed from deeply anesthetized dams. Septi and hippocampi were dissected in a dissection buffer (HBSS, with 4.2 mM bicarbonate, 1 mM pyruvate, 20 mM HEPES, 3 mg/ml BSA, pH 7.25). After rinsing in DMEM-DM, tissue was dissociated by trituration through the narrow pore of a flame-constricted Pasteur pipette. Dissociated cells were resuspended in DMEM with 10% fetal calf serum (DMEM-10S) and plated on 24-well poly-L-lysine coated plastic culture plates or 12 mm of German glass (Erie Scientific Co.) at a density of 4.36×10^5 cells/mL. Cultures were maintained in a humidified incubator in an atmosphere of 5% CO2 at 37° C. After 5 days of culture, the media was changed to DMEM-DM. […] Subsequent media changes were carried out three times a week. By day 10 in vitro, astrocytes formed a confluent monolayer beneath morphologically mature neurons.
Treatment of septo-hippocampal cultures with calpain, caspase, and protein synthesis inhibitors. Sister cultures were pretreated with either 37.5 μM calpain inhibitor-II (CalpInh-II) (Boehringer Mannheim), 30 μM of the pan-caspase inhibitor Z-D-DCB (obtained from Biochem), or 1 μg/mL of the protein synthesis inhibitor, cycloheximide (Sigma), […] The inhibitor concentrations provide optimal inhibition of calpains, caspase-3 (CPP32) proteases, and protein synthesis. […] This investigation also employed degradation of αII-spectrin to provide independent confirmation that the concentrations of CalpInh-II and Z-D-DCB used in this study to inhibit calpains and caspase-3 proteases. […] Following each experiment, cells were fixed for staining, or protein or DNA extraction was performed.
SDS-Polyacrylamide Gel electrophoresis and immunoblotting. At the end of an experiment, cells were harvested from 5 identical culture wells and collected in 15 ml centrifuge tubes and centrifuged at 3000 g for 5 min. The medium was removed and the pellet cells were rinsed with 1× DPBS. […]

[2] = test system: septo-hippocampal cultures; test: αII-spectrin immunoblot of septo-hippocampal cultures after maitotoxin or staurosporine insult; type: cell-based, rat; details: maitotoxin 30 min, 1 hr; staurosporine 3 hr; anti-α-spectrin antibody FG 6090
Method: as §1, with “By day 10 in vitro, astrocytes formed a confluent monolayer beneath morphologically mature neurons.” left out
Pharmacological treatment of septo-hippocampal cells with maitotoxin. Ten day old septo-hippocampal cultures were challenged with 0.01-2.0 nM of maitotoxin (Wako Products, Richmond, Va., Cat.# 131-10731) in DMEM-DM and cell viability was monitored at various post-injury time points. […]
Treatment of cultures with staurosporine. Ten day old septo-hippocampal cultures were challenged with 0.05-2.0 μM of staurosporine (Calbiochem, La Jolla, Calif., Cat. # 569397) in DMEM-DM and cell viability was monitored at various post-injury time points. […]

Structure (SMILES) | antagonism of calpain and caspase-3 activation accompanying staurosporine-induced apoptosis [1] | type of cell death and protease-specific SBDP detected [2] | further results
O=C(O)CC(NC(=O)OCc1ccccc1)C(=O)COC(=O)c1c(Cl)cccc1Cl [Z-D-DCB, carbobenzoxy-Asp-CH2—OC (O)-2-6-dichlorobenzene] | could antagonize calpain and caspase-3 activation |  | 
CN[C@@H]1C[C@H]2O[C@@](C)([C@@H]1OC)n1c3ccccc3c3c4c(c5c6ccccc6n2c5c31)C(=O)NC4 [staurosporine] |  | apoptotic cell death mediated by caspase-3 (120 kDa SBDP) but not by calpain (145 kDa SBDP) | 
C[C@@H]1C[C@@H]([C@H](O)CC2CC(=O)NC(=O)C2)C(=O)[C@@H](C)C1 [cycloheximide] |  |  | effect on calpain and caspase activation and apoptotic cell death ([1]; 1 μg/mL cycloheximide): blocked calpain and caspase activation as well as apoptotic cell death
CSCC[C@@H](C=O)NC(=O)[C@H](CC(C)C)NC(=O)[C@H](CC(C)C)NC(C)=O [CalpInh-II, N-acetyl-Leu-Leu-methioninal] (Ac-Leu-Leu-Met-aldehyde) | could antagonize calpain and caspase-3 activation |  | 
C=CC[C@H](C)[C@H](C)C[C@@H](O)[C@H](O)[C@@H]1CC[C@@]2(C)O[C@@]3(C)C[C@@]4(C)O[C@H]5/C=C\C[C@H]6O[C@H]7C[C@H]8O[C@H]9C[C@@]%10(C)O[C@@](C)([C@@H]%11CC[C@H]%12O[C@@]%13(C)C[C@H]%14O[C@@]%15(C)C[C@H]%16O[C@@]%17(C)C[C@@H](O)[C@H]([C@@H]%18O[C@H]%19[C@H](O)[C@@H](O)[C@H](C[C@H](O)C[C@@H](O)[C@@H]%20O[C@H]%21[C@H](O)[C@@H](O)[C@H]([C@@H]%22O[C@@H]%23[C@H](O)[C@H]%24O[C@H]%25C[C@H]%26O[C@@H](C[C@H](O)[C@@H](O)[C@H]%27O[C@H]%28[C@H](O)[C@H]%29O[C@H]%30C[C@H]%31O[C@H]%32[C@@H](O)[C@@H](O)[C@H]([C@H](C)[C@H](O)[C@H](C)CC[C@H](OS(=O)(=O)O)[C@H](O)[C@H](C)C[C@@H](O)C(=C)/C(C)=C/CO)O[C@@H]%32[C@H](O)C[C@]%31(C)O[C@@H]%30C[C@]%29(C)O[C@@H]%28C[C@H]%27O)[C@H](OS(=O)(=O)O)[C@H](O)[C@@H]%26O[C@@H]%25C[C@@H]%24O[C@H]%23[C@H](O)[C@H]%22O)O[C@H]%21C[C@H]%20O)O[C@H]%19C[C@H]%18O)O[C@@H]%17[C@H](O)[C@]%16(C)O[C@@H]%15CC[C@]%14(C)O[C@@H]%13C[C@@H]%12O%11)[C@H](O)C[C@@H]%10O[C@]9(C)CC[C@]8(C)O[C@]7(C)C[C@@H]6O[C@@H]5C[C@@H]4O[C@@H]3C[C@@H]2O1 [maitotoxin] |  | necrotic cell death mediated by calpain (145 kDa SBDP) but not caspase-3 (120 kDa SBDP) | 
